Data published in ChEMBL document CHEMBL5370534, “Discovery of novel triazine derivatives as potent retinoic acid receptor-related orphan receptor γt (RORγt) inverse agonists” (Eur J Med Chem, 2023).

System: not listed separately
Experiment: Half life in mouse liver microsomes at 1 mM in presence of NADPH by HPLC-MS/MS analysis
Parameters: dose or concentration left out as unconfirmed
Details: not given

Point of comparison: CC(=O)Nc1ccc(Nc2nc(Oc3c(Cl)cccc3C(F)(F)F)nc(-c3ccc(C(F)(F)F)cc3)n2)cc1, half-life 17.8 min. Against it:
- O=C(O)c1ccc(Nc2nc(Oc3c(Cl)cccc3Cl)nc(-c3ccc(C(F)(F)F)cc3)n2)cc1 — higher, > 145 min

System: Mus musculus
Experiment: Antiinflammatory activity against imiquimod-induced psoriasis BALB/c mouse model assessed as reduction in psoriasis symptoms at 0.4 mg/kg, po qd for 7 days
Details: 168 h, read-out: INH

With CN(Cc1cnc2nc(N)nc(N)c2n1)c1ccc(C(=O)N[C@@H](CCC(=O)O)C(=O)O)cc1 [METHOTREXATE] the inhibition in vivo at 0.4 mg/kg was 53.1%.

Molecular target: T1, Nuclear receptor ROR-gamma (Homo sapiens, UniProt P51449)
T1 sequence (P51449 whole entry): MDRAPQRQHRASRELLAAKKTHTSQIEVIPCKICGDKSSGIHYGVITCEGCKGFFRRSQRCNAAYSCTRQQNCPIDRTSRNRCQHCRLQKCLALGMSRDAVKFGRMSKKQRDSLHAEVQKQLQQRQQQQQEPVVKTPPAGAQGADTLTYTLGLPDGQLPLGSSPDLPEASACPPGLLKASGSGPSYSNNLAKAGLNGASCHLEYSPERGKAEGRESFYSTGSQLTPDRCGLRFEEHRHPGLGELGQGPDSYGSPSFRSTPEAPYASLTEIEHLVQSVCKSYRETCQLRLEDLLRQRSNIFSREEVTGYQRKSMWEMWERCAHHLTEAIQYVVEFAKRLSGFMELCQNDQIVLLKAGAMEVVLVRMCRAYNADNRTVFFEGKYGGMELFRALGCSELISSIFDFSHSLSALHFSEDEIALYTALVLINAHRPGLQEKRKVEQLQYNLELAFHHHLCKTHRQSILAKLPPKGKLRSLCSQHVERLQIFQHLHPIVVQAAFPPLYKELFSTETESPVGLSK
Details: not given

Point of comparison: CC(=O)Nc1ccc(Nc2nc(Oc3c(Cl)cccc3C(F)(F)F)nc(-c3ccc(C(F)(F)F)cc3)n2)cc1, IC50 0.032 µM. Against it:
- COc1ccc(-c2nc(Nc3ccc(C(=O)O)c(O)c3)nc(Oc3c(Cl)cccc3Cl)n2)cc1 — 2.6-fold higher, 0.083 µM
- O=C(O)c1ccc(Nc2nc(Oc3c(Cl)cccc3Cl)nc(C3CCCC3)n2)cc1 — 110-fold higher, 3.42 µM
- Cc1ccc(-c2nc(Nc3ccc(C(=O)O)cc3)nc(Oc3c(Cl)cccc3Cl)n2)cc1 — 1.9-fold higher, 0.0617 µM
- COc1ccc(-c2nc(NC3CCC(C(=O)O)C3)nc(Oc3c(Cl)cccc3Cl)n2)cc1 (stereo unspecified) — 26-fold higher, 0.822 µM
- COc1ccc(-c2nc(Nc3ccc(C(C)C(=O)O)cc3)nc(Oc3c(Cl)cccc3Cl)n2)cc1 (stereo unspecified) — 3.1-fold higher, 0.0995 µM
- Cc1cccc(-c2nc(Nc3ccc(C(=O)O)cc3)nc(Oc3c(Cl)cccc3Cl)n2)c1 — 7.5-fold higher, 0.241 µM
- COc1ccc(-c2nc(Nc3cccc(C(=O)O)c3)nc(Oc3c(Cl)cccc3Cl)n2)cc1 — 2.8-fold higher, 0.091 µM
- CNS(=O)(=O)c1ccc(Nc2nc(Oc3c(Cl)cccc3Cl)nc(-c3ccc(OC)cc3)n2)cc1 — within 1.5-fold, 0.0325 µM
- O=C(O)c1ccc(Nc2nc(Oc3c(Cl)cccc3Cl)nc(C3CCCCC3)n2)cc1 — 19-fold higher, 0.596 µM
- COc1ccc(-c2nc(Nc3ccc(C(N)=O)cc3)nc(Oc3c(Cl)cccc3Cl)n2)cc1 — 2.4-fold lower, 0.0133 µM
- CNC(=O)c1ccc(Nc2nc(Oc3c(Cl)cccc3C(F)(F)F)nc(-c3ccc(OC)cc3)n2)cc1 — 1.9-fold lower, 0.0167 µM
- CC(C)(C)c1ccc(-c2nc(Nc3ccc(C(=O)O)cc3)nc(Oc3c(Cl)cccc3Cl)n2)cc1 — 3.1-fold higher, 0.0995 µM
- O=C(O)c1ccc(Nc2nc(Oc3c(Cl)cccc3Cl)nc(-c3ccc(F)cc3)n2)cc1 — 4.8-fold higher, 0.152 µM
- O=C(O)c1ccc(Nc2nc(Oc3c(Cl)cccc3Cl)nc(-c3ccc(C(F)(F)F)cc3)n2)cc1 — 2.1-fold higher, 0.0686 µM
- CNC(=O)c1ccc(Nc2nc(Oc3c(Cl)cccc3Cl)nc(-c3ccc(C(F)(F)F)cc3)n2)cc1 — within 1.5-fold, 0.0225 µM
- CNC(=O)c1ccc(Nc2nc(Oc3c(Cl)cccc3Cl)nc(-c3ccc(OC)cc3)n2)cc1 — 2.5-fold lower, 0.0129 µM

Molecular target: T1, Nuclear receptor ROR-gamma
Details: not given
Remark: another data set of the same source

Work on O=C(O)c1ccc(Nc2nc(Oc3c(Cl)cccc3Cl)nc(-c3ccc(C(F)(F)F)cc3)n2)cc1 yielded an IC50 of 1.62 µM.
